Measured values taken from PubChem BioAssay AID1963426 (Molecular Pharmacology Branch, DTP, NCI, 2024).
Blank lines part the entries; values can stand above or below the compound they belong to.

System: 186277-243-T-J2-PDC complex spheroid growth, % test/control
Assay: Anticancer human tumor 186277-243-T-J2-PDC patient-derived colon adenocarcinoma cell line growth inhibition [Asc]
Settings: for IC50: curve of first compound; for viability, T/C: stronger effect = lower value
Summary of the method: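 Complex spheroids combining tumor cells with HUVEC endothelial cells and human MSCs, at 37 degrees C, 5% CO2; agents tested alone or combined, half-log dilutions from at or near clinical Cmax, or 10 microM if Cmax unknown.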

[1] = second compound 0.01 µM, first compound 0.00316 µM
[2] = second compound 0.01 µM, first compound 0.01 µM
[3] = second compound 0.01 µM, first compound 0.0316 µM
[4] = second compound 0.01 µM, first compound 0.1 µM
[5] = second compound 0.01 µM, first compound 0.316 µM
[6] = second compound 0.01 µM, first compound 1 µM
[7] = second compound 0.0316 µM, first compound 0.00316 µM
[8] = second compound 0.0316 µM, first compound 0.01 µM
[9] = second compound 0.0316 µM, first compound 0.0316 µM
[10] = second compound 0.0316 µM, first compound 0.1 µM
[11] = second compound 0.0316 µM, first compound 0.316 µM
[12] = second compound 0.0316 µM, first compound 1 µM
[13] = second compound 0.1 µM, first compound 0.00316 µM
[14] = second compound 0.1 µM, first compound 0.01 µM
[15] = second compound 0.1 µM, first compound 0.0316 µM
[16] = second compound 0.1 µM, first compound 0.1 µM
[17] = second compound 0.1 µM, first compound 0.316 µM
[18] = second compound 0.1 µM, first compound 1 µM
[19] = second compound 0.316 µM, first compound 0.00316 µM
[20] = second compound 0.316 µM, first compound 0.01 µM
[21] = second compound 0.316 µM, first compound 0.0316 µM
[22] = second compound 0.316 µM, first compound 0.1 µM
[23] = second compound 0.316 µM, first compound 0.316 µM
[24] = second compound 0.316 µM, first compound 1 µM
[25] = second compound 1 µM, first compound 0.00316 µM
[26] = second compound 1 µM, first compound 0.01 µM
[27] = second compound 1 µM, first compound 0.0316 µM
[28] = second compound 1 µM, first compound 0.1 µM
[29] = second compound 1 µM, first compound 0.316 µM
[30] = second compound 1 µM, first compound 1 µM
[31] = second compound 0.01 µM, first compound 0.000316 µM
[32] = second compound 0.01 µM, first compound 0.001 µM
[33] = second compound 0.0316 µM, first compound 0.000316 µM
[34] = second compound 0.0316 µM, first compound 0.001 µM
[35] = second compound 0.1 µM, first compound 0.000316 µM
[36] = second compound 0.1 µM, first compound 0.001 µM
[37] = second compound 0.316 µM, first compound 0.000316 µM
[38] = second compound 0.316 µM, first compound 0.001 µM
[39] = second compound 1 µM, first compound 0.000316 µM
[40] = second compound 1 µM, first compound 0.001 µM
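Note: spheroids exposed to agents for 7 days.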
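Throughout, for viability, T/C: 100% = DMSO vehicle control wells.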

- IC50 (second compound 0.01 µM): > 0.1 µM
- IC50 (second compound 0.0316 µM): > 0.1 µM
- IC50 (second compound 0.1 µM): > 0.1 µM
- IC50 (second compound 0.316 µM): > 0.1 µM
- IC50 (second compound 1 µM): > 0.1 µM
Compound: NC1CCC(NC2CC2c2ccccc2)CC1 (stereo not given) + CNC(C)C(=O)NC1CN(S(=O)(=O)c2cccc(S(=O)(=O)N3CCC4CCC(C(=O)NC(c5ccccc5)c5ccccc5)N4C(=O)C(NC(=O)C(C)NC)C3)c2)CCC2CCC(C(=O)NC(c3ccccc3)c3ccccc3)N2C1=O
- viability, T/C [31]: 116%
- viability, T/C [32]: 105%
- viability, T/C [1]: 109%
- viability, T/C [2]: 101%
- viability, T/C [3]: 109%
- viability, T/C [4]: 106%
- viability, T/C [33]: 117%
- viability, T/C [34]: 120%
- viability, T/C [7]: 111%
- viability, T/C [8]: 114%
- viability, T/C [9]: 102%
- viability, T/C [10]: 91.7%
- viability, T/C [35]: 107%
- viability, T/C [36]: 115%
- viability, T/C [13]: 121%
- viability, T/C [14]: 111%
- viability, T/C [15]: 121%
- viability, T/C [16]: 109%
- viability, T/C [37]: 121%
- viability, T/C [38]: 144%
- viability, T/C [19]: 115%
- viability, T/C [20]: 106%
- viability, T/C [21]: 111%
- viability, T/C [22]: 125%
- viability, T/C [39]: 109%
- viability, T/C [40]: 119%
- viability, T/C [25]: 125%
- viability, T/C [26]: 109%
- viability, T/C [27]: 123%
- viability, T/C [28]: 121%

- IC50 (second compound 0.01 µM): 0.178 µM
- IC50 (second compound 0.0316 µM): 0.176 µM
- IC50 (second compound 0.1 µM): 0.134 µM
- IC50 (second compound 0.316 µM): 0.126 µM
- IC50 (second compound 1 µM): 0.0854 µM
Compound: O=C(c1ccc(F)c(F)c1Nc1ccc(I)cc1F)N1CC(O)([C@@H]2CCCCN2)C1 + CNC(C)C(=O)NC1CN(S(=O)(=O)c2cccc(S(=O)(=O)N3CCC4CCC(C(=O)NC(c5ccccc5)c5ccccc5)N4C(=O)C(NC(=O)C(C)NC)C3)c2)CCC2CCC(C(=O)NC(c3ccccc3)c3ccccc3)N2C1=O
- viability, T/C [1]: 90.3%
- viability, T/C [2]: 89.6%
- viability, T/C [3]: 106%
- viability, T/C [4]: 78.4%
- viability, T/C [5]: 21.6%
- viability, T/C [6]: 11.9%
- viability, T/C [7]: 110%
- viability, T/C [8]: 95.9%
- viability, T/C [9]: 115%
- viability, T/C [10]: 82.2%
- viability, T/C [11]: 17%
- viability, T/C [12]: 10.4%
- viability, T/C [13]: 107%
- viability, T/C [14]: 104%
- viability, T/C [15]: 98.8%
- viability, T/C [16]: 61.7%
- viability, T/C [17]: 15.8%
- viability, T/C [18]: 9.21%
- viability, T/C [19]: 112%
- viability, T/C [20]: 112%
- viability, T/C [21]: 108%
- viability, T/C [22]: 59.4%
- viability, T/C [23]: 12.6%
- viability, T/C [24]: 7.61%
- viability, T/C [25]: 106%
- viability, T/C [26]: 119%
- viability, T/C [27]: 105%
- viability, T/C [28]: 41.2%
- viability, T/C [29]: 8.18%
- viability, T/C [30]: 7.39%

More lines, now with the values behind:

Compound: CCN1CCN(Cc2ccc(Nc3ncc(F)c(-c4cc(F)c5nc(C)n(C(C)C)c5c4)n3)nc2)CC1 + CNC(C)C(=O)NC1CN(S(=O)(=O)c2cccc(S(=O)(=O)N3CCC4CCC(C(=O)NC(c5ccccc5)c5ccccc5)N4C(=O)C(NC(=O)C(C)NC)C3)c2)CCC2CCC(C(=O)NC(c3ccccc3)c3ccccc3)N2C1=O
- IC50 (second compound 0.01 µM): > 1 µM
- IC50 (second compound 0.0316 µM): > 1 µM
- IC50 (second compound 0.1 µM): > 1 µM
- IC50 (second compound 0.316 µM): > 1 µM
- IC50 (second compound 1 µM): > 1 µM
- viability, T/C [1]: 85.5%
- viability, T/C [2]: 110%
- viability, T/C [3]: 109%
- viability, T/C [4]: 129%
- viability, T/C [5]: 123%
- viability, T/C [6]: 114%
- viability, T/C [7]: 111%
- viability, T/C [8]: 90.2%
- viability, T/C [9]: 114%
- viability, T/C [10]: 114%
- viability, T/C [11]: 143%
- viability, T/C [12]: 120%
- viability, T/C [13]: 112%
- viability, T/C [14]: 120%
- viability, T/C [15]: 118%
- viability, T/C [16]: 132%
- viability, T/C [17]: 143%
- viability, T/C [18]: 107%
- viability, T/C [19]: 107%
- viability, T/C [20]: 108%
- viability, T/C [21]: 126%
- viability, T/C [22]: 131%
- viability, T/C [23]: 134%
- viability, T/C [24]: 110%
- viability, T/C [25]: 120%
- viability, T/C [26]: 113%
- viability, T/C [27]: 118%
- viability, T/C [28]: 138%
- viability, T/C [29]: 148%
- viability, T/C [30]: 120%

Compound: Cn1ncnc1[C@H]1c2n[nH]c(=O)c3cc(F)cc(c23)N[C@@H]1c1ccc(F)cc1 + CNC(C)C(=O)NC1CN(S(=O)(=O)c2cccc(S(=O)(=O)N3CCC4CCC(C(=O)NC(c5ccccc5)c5ccccc5)N4C(=O)C(NC(=O)C(C)NC)C3)c2)CCC2CCC(C(=O)NC(c3ccccc3)c3ccccc3)N2C1=O
- IC50 (second compound 0.01 µM): > 0.1 µM
- IC50 (second compound 0.0316 µM): > 0.1 µM
- IC50 (second compound 0.1 µM): > 0.1 µM
- IC50 (second compound 0.316 µM): > 0.1 µM
- IC50 (second compound 1 µM): > 0.1 µM
- viability, T/C [31]: 100%
- viability, T/C [32]: 97.5%
- viability, T/C [1]: 106%
- viability, T/C [2]: 119%
- viability, T/C [3]: 144%
- viability, T/C [4]: 144%
- viability, T/C [33]: 108%
- viability, T/C [34]: 103%
- viability, T/C [7]: 129%
- viability, T/C [8]: 124%
- viability, T/C [9]: 133%
- viability, T/C [10]: 155%
- viability, T/C [35]: 121%
- viability, T/C [36]: 115%
- viability, T/C [13]: 124%
- viability, T/C [14]: 127%
- viability, T/C [15]: 146%
- viability, T/C [16]: 155%
- viability, T/C [37]: 101%
- viability, T/C [38]: 101%
- viability, T/C [19]: 108%
- viability, T/C [20]: 128%
- viability, T/C [21]: 147%
- viability, T/C [22]: 159%
- viability, T/C [39]: 91.3%
- viability, T/C [40]: 115%
- viability, T/C [25]: 104%
- viability, T/C [26]: 131%
- viability, T/C [27]: 130%
- viability, T/C [28]: 149%

Compound: NC(=O)C(=Cn1cnc(-c2cc(C(F)(F)F)cc(C(F)(F)F)c2)n1)c1cncnc1 + CNC(C)C(=O)NC1CN(S(=O)(=O)c2cccc(S(=O)(=O)N3CCC4CCC(C(=O)NC(c5ccccc5)c5ccccc5)N4C(=O)C(NC(=O)C(C)NC)C3)c2)CCC2CCC(C(=O)NC(c3ccccc3)c3ccccc3)N2C1=O
- IC50 (second compound 0.01 µM): 0.192 µM
- IC50 (second compound 0.0316 µM): 0.204 µM
- IC50 (second compound 0.1 µM): 0.21 µM
- IC50 (second compound 0.316 µM): 0.194 µM
- IC50 (second compound 1 µM): 0.178 µM
- viability, T/C (second compound 0.01 µM, first compound 0.000949 µM): 127%
- viability, T/C (second compound 0.01 µM, first compound 0.003 µM): 102%
- viability, T/C (second compound 0.01 µM, first compound 0.00949 µM): 98.9%
- viability, T/C (second compound 0.01 µM, first compound 0.03 µM): 128%
- viability, T/C (second compound 0.01 µM, first compound 0.0949 µM): 90.3%
- viability, T/C (second compound 0.01 µM, first compound 0.3 µM): 24.3%
- viability, T/C (second compound 0.0316 µM, first compound 0.000949 µM): 105%
- viability, T/C (second compound 0.0316 µM, first compound 0.003 µM): 113%
- viability, T/C (second compound 0.0316 µM, first compound 0.00949 µM): 93.8%
- viability, T/C (second compound 0.0316 µM, first compound 0.03 µM): 109%
- viability, T/C (second compound 0.0316 µM, first compound 0.0949 µM): 96.9%
- viability, T/C (second compound 0.0316 µM, first compound 0.3 µM): 26.4%
- viability, T/C (second compound 0.1 µM, first compound 0.000949 µM): 114%
- viability, T/C (second compound 0.1 µM, first compound 0.003 µM): 109%
- viability, T/C (second compound 0.1 µM, first compound 0.00949 µM): 113%
- viability, T/C (second compound 0.1 µM, first compound 0.03 µM): 118%
- viability, T/C (second compound 0.1 µM, first compound 0.0949 µM): 107%
- viability, T/C (second compound 0.1 µM, first compound 0.3 µM): 24.6%
- viability, T/C (second compound 0.316 µM, first compound 0.000949 µM): 103%
- viability, T/C (second compound 0.316 µM, first compound 0.003 µM): 107%
- viability, T/C (second compound 0.316 µM, first compound 0.00949 µM): 110%
- viability, T/C (second compound 0.316 µM, first compound 0.03 µM): 111%
- viability, T/C (second compound 0.316 µM, first compound 0.0949 µM): 97.8%
- viability, T/C (second compound 0.316 µM, first compound 0.3 µM): 20.3%
- viability, T/C (second compound 1 µM, first compound 0.000949 µM): 93.6%
- viability, T/C (second compound 1 µM, first compound 0.003 µM): 108%
- viability, T/C (second compound 1 µM, first compound 0.00949 µM): 113%
- viability, T/C (second compound 1 µM, first compound 0.03 µM): 111%
- viability, T/C (second compound 1 µM, first compound 0.0949 µM): 85.8%
- viability, T/C (second compound 1 µM, first compound 0.3 µM): 20.2%
